# “And” between values parts separate entries of the source, which are not always exact repeats. Identical values can stand only once.
# Target: T1, human kinase Mps-1 (Homo sapiens, UniProt P33981)
# T1 construct: N-terminally GST-tagged human full length recombinant Mps-1 kinase; GST (N); purchased Invitrogen, Karslruhe, Germany PV4071
# T1 sequence (P33981 1-857): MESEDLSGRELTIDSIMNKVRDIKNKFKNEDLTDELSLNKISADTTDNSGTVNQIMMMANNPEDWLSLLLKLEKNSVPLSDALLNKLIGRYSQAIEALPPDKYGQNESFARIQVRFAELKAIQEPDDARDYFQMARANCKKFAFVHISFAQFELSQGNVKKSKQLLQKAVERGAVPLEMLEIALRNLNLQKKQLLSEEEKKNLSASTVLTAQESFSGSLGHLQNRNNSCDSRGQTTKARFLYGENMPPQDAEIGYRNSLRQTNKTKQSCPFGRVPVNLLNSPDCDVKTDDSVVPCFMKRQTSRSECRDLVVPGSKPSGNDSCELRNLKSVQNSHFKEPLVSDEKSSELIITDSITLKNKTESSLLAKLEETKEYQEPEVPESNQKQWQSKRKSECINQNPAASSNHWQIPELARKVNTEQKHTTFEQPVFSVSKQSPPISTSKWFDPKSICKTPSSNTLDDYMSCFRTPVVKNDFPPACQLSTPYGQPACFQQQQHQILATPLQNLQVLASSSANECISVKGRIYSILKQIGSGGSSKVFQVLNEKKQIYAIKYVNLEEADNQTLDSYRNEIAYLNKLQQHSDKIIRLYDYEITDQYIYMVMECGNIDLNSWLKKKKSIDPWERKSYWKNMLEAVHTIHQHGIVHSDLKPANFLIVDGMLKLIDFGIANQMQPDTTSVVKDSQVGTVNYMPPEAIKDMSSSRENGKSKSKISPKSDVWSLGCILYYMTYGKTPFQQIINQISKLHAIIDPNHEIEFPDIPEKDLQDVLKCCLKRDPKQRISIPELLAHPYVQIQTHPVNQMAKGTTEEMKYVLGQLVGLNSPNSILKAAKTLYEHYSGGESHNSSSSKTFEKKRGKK
# Assay: Mps-1 kinase assay (TR-FRET)
# Assay type: biochemical
# Settings: Mps-1 TR-FRET kinase assay; avg; read-out: Mps1 avg (IC50 [mol/l])
# Outline: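 Inhibition normalised between uninhibited reaction (0%) and enzyme-free wells (100%), using the blank-corrected TR-FRET 665/620 nm ratio after EDTA stop. Reaction: ~0.5 nM GST-Mps-1 full length, 10 μM ATP, 1 μM biotin-peptide, 60 min at 22 °C, after 15 min compound pre-binding, pH 7.7.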
row,SMILES,IC50
1,"Cc1nsc(Nc2cnc(C(F)(F)F)cn2)c1C(=O)Nc1ccc(OCC2CCN(C(=O)OC(C)(C)C)CC2)nc1 [Example 227, tert-butyl 4-{[(5-{[(3-methyl-5-{[5-(trifluoromethyl)pyrazin-2-yl]amino}-1,2-thiazol-4-yl)carbonyl]amino}pyridin-2-yl)oxy]methyl}piperidine-1-carboxylate]",> 20 µM
2,"Cc1nsc(Nc2cnc(C(F)(F)F)cn2)c1C(=O)Nc1cccc(S(C)(=O)=O)c1 [Example 195, 3-methyl-N-[3-(methylsulfonyl)phenyl]-5-{[5-(trifluoromethyl)pyrazin-2-yl]amino}-1,2-thiazole-4-carboxamide]",> 20 µM
3,"Cc1nsc(Nc2cnc(C(F)(F)F)cn2)c1C(=O)Nc1ccc(OCCN)nc1 [Example 197, N-[6-(2-aminoethoxy)pyridin-3-yl]-3-methyl-5-{[5-(trifluoromethyl)pyrazin-2-yl]amino}-1,2-thiazole-4-carboxamide]",> 20 µM
4,"Cc1nsc(Nc2cnc3ccccc3n2)c1C(=O)Nc1ccc(OCCC(=O)OC(C)(C)C)nc1 [Example 198, tert-butyl 3-{[5-({[3-methyl-5-(quinoxalin-2-ylamino)-1,2-thiazol-4-yl]carbonyl}amino)pyridin-2-yl]oxy}propanoate]",4.6 µM
5,"Cc1nsc(Nc2cncc(C(F)(F)F)n2)c1C(=O)Nc1ccc(OCCCNC(=O)OC(C)(C)C)nc1 [Example 190, tert-butyl {3-[(5-{[(3-methyl-5-{[6-(trifluoromethyl)pyrazin-2-yl]amino}-1,2-thiazoL-4-yl)carbonyl]amino}pyridin-2-yl)oxy]propyl}carbamate]",> 20 µM
6,"CNS(=O)(=O)c1ccc(NC(=O)c2c(C)nsc2Nc2cnc(C(F)(F)F)cn2)cc1 [Example 212, 3-methyl-N-[4-(methylsulfamoyl)phenyl]-5-{[5-(trifluoromethyl)pyrazin-2-yl]amino}-1,2-thiazole-4-carboxamide]",> 20 µM
7,"Cc1nsc(Nc2cncc(C(F)(F)F)n2)c1C(=O)Nc1ccc(OC2CCN(CCF)CC2)c(F)c1 [Example 223, N-(3-fluoro-4-{[1-(2-fluoroethyl)piperidin-4-yl]oxy}phenyl)-3-methyl-5-{[6-(trifluoromethyl)pyrazin-2-yl]amino}-1,2-thiazole-4-carboxamide]",> 20 µM
8,"Cc1nsc(Nc2cncc(C(F)(F)F)n2)c1C(=O)Nc1ccc(OC2CCN(C(C)C)CC2)nc1 [Example 218, N-{6-[(1-isopropylpiperidin-4-yl)oxy]pyridin-3-yl}-3-methyl-5-{[6-(trifluoromethyl)pyrazin-2-yl]amino}-1,2-thiazole-4-carboxamide]",> 20 µM
9,"CNS(=O)(=O)c1ccc(NC(=O)c2c(C)nsc2Nc2cncc(C(F)(F)F)n2)cc1 [Example 211, 3-methyl-N-[4-(methylsulfamoyl)phenyl]-5-{[6-(trifluoromethyl)pyrazin-2-yl]amino}-1,2-thiazole-4-carboxamide]",> 20 µM and 19 µM
10,"Cc1nsc(Nc2cnc3ccccc3n2)c1C(=O)Nc1ccc(OC2CCN(C(=O)OC(C)(C)C)CC2)nc1 [Example 18, tert-Butyl 4-{[5-({[3-methyl-5-(quinoxalin-2-ylamino)-1,2-thiazol-4-yl]carbonyl}-amino)pyridin-2-yl]oxy}piperidine-1-carboxylate]",≥ 20 µM
11,"Cc1nsc(Nc2cncc(C(F)(F)F)n2)c1C(=O)Nc1ccc(OCC2CCN(C(=O)OC(C)(C)C)CC2)nc1 [Example 226, tert-butyl 4-{[(5-{[(3-methyl-5-{[6-(trifluoromethyl)pyrazin-2-yl]amino}-1,2-thiazol-4-yl)carbonyl]amino}pyridin-2-yl)oxy]methyl}piperidine-1-carboxylate]",> 20 µM
12,"Cc1nsc(Nc2cc(C#N)ccn2)c1C(=O)Nc1cccc(NC(=O)C(C)(C)C)c1 [Example 183, 5-[(4-cyanopyridin-2-yl)amino]-N-{3-[(2,2-dimethylpropanoyl)amino]phenyl}-3-methyl-1,2-thiazole-4-carboxamide]",> 20 µM
13,"Cc1cc(C)n(-c2ccccc2NC(=O)c2c(C)nsc2Nc2cnc3ccccc3n2)n1 [Example 243, N-[2-(3,5-dimethyl-1H-pyrazol-1-yl)phenyl]-3-methyl-5-(quinoxalin-2-ylamino)-1,2-thiazole-4-carboxamide]",> 20 µM
14,"CC(=O)Nc1cc(NC(=O)c2c(C)nsc2Nc2cnccn2)ccc1F [Example 205, N-(3-acetamido-4-fluorophenyl)-3-methyl-5-(pyrazin-2-ylamino)-1,2-thiazole-4-carboxamide]",> 20 µM
15,"Cc1nsc(Nc2cncc(C(F)(F)F)n2)c1C(=O)Nc1ccc(OC2CCN(CC(F)F)CC2)c(F)c1 [Example 224, N-(4-{[1-(2,2-difluoroethyl)piperidin-4-yl]oxy}-3-fluorophenyl)-3-methyl-5-{[6-(trifluoromethyl)pyrazin-2-yl]amino}-1,2-thiazole-4-carboxamide]",> 20 µM
16,"CC(=O)Nc1cc(NC(=O)c2c(C)nsc2Nc2cnc(C(F)(F)F)cn2)ccc1F [Example 206, N-(3-acetamido-4-fluorophenyl)-3-methyl-5-{[5-(trifluoromethyl)pyrazin-2-yl]amino}-1,2-thiazole-4-carboxamide]",> 20 µM
17,"Cc1nsc(Nc2cncc(C(F)(F)F)n2)c1C(=O)Nc1ccc(OCCN)nc1 [Example 196, N-[6-(2-aminoethoxy)pyridin-3-yl]-3-methyl-5-{[6-(trifluoromethyl)pyrazin-2-yl]amino}-1,2-thiazole-4-carboxamide]",> 20 µM
18,"Cc1nsc(Nc2cncc(C(F)(F)F)n2)c1C(=O)Nc1ccc(C(=O)NC2CCN(CC(F)F)CC2)cc1 [Example 225, N-N-(4-{[1-(2,2-difluoroethyl)piperidin-4-yl]carbamoyl}phenyl)-3-methyl-5-{[6-(trifluoromethyl)pyrazin-2-yl]amino}-1,2-thiazole-4-carboxamide]",> 20 µM
19,"Cc1nsc(Nc2cncc(C(F)(F)F)n2)c1C(=O)Nc1cccc(S(C)(=O)=O)c1 [Example 194, 3-methyl-N-[3-(methylsulfonyl)phenyl]-5-{[6-(trifluoromethyl)pyrazin-2-yl]amino}-1,2-thiazole-4-carboxamide]",> 10 µM
20,"Cc1nsc(Nc2cnc3ccccc3n2)c1C(=O)Nc1ccc(C(=O)O)cc1 [Example 187, 4-({[3-methyl-5-(quinoxalin-2-ylamino)-1,2-thiazol-4-yl]carbonyl}amino)benzoic acid]",5.4 µM
21,"Cc1nsc(Nc2cc(C#N)ccn2)c1C(=O)Nc1ccc(NC2CCCNC2)nc1 (stereo not drawn) [Example 242, 5-[(4-cyanopyridin-2-yl)amino]-3-methyl-N-[6-(piperidin-3-ylamino)pyridin-3-yl]-1,2-thiazole-4-carboxamide]",> 20 µM
22,"Cc1nsc(Nc2ccc(C#N)cn2)c1C(=O)Nc1ccc(S(C)(=O)=O)cc1 [Example 246, 5-[(5-cyanopyridin-2-yl)amino]-3-methyl-N-[4-(methylsulfonyl)phenyl]-1,2-thiazole-4-carboxamide]",> 20 µM
23,"Cc1nsc(Nc2cncc(C(F)(F)F)n2)c1C(=O)Nc1ccc(OCCNC(=O)OC(C)(C)C)nc1 [Example 191, tert-butyl {2-[(5-{[(3-methyl-5-{[6-(trifluoromethyl)pyrazin-2-yl]amino}-1,2-thiazol-4-yl)carbonyl]amino}pyridin-2-yl)oxy]ethyl}carbamate]",> 20 µM
24,"Cc1nsc(Nc2cc(C#N)ccn2)c1C(=O)Nc1ccc(OCCC(=O)OC(C)(C)C)nc1 [Example 200, tert-butyl 3-({5-[({5-[(4-cyanopyridin-2-yl)amino]-3-methyl-1,2-thiazol-4-yl}carbonyl)amino]pyridin-2-yl}oxy)propanoate]",> 20 µM
25,"Cc1nsc(Nc2cnc3ccccc3n2)c1C(=O)Nc1ccc(NC2CCN(C(=O)OC(C)(C)C)CC2)nc1 [Example 234, tert-butyl 4-{[5-({[3-methyl-5-(quinoxalin-2-ylamino)-1,2-thiazol-4-yl]carbonyl}amino)pyridin-2-yl]amino}piperidine-1-carboxylate]",> 20 µM
26,"Cc1nsc(Nc2cnc(C(F)(F)F)cn2)c1C(=O)Nc1ccc(C(=O)NCCN2CCCC(F)C2)cc1 (stereo not drawn) [Example 213, N-(4-{[2-(3-fluoropiperidin-1-yl)ethyl]carbamoyl}phenyl)-3-methyl-5-{[5-(trifluoromethyl)pyrazin-2-yl]amino}-1,2-thiazole-4-carboxamide]",> 20 µM
27,"Cc1nsc(Nc2cc(C#N)ccn2)c1C(=O)Nc1ccc(NC(=O)OC(C)(C)C)cc1 [Example 177, tert-butyl {4-[({5-[(4-cyanopyridin-2-yl)amino]-3-methyl-1,2-thiazol-4-yl}carbonyl)amino]phenyl}carbamate]",> 20 µM

# From US20170334899A1, “AMINO-SUBSTITUTED ISOTHIAZOLES” (Bayer Pharma Aktiengesellschaft, priority 2014, published 2017)
